# Reference: patent US20170107257A1, “CYCLIC APELIN ANALOGS” (LANTHIOPEP B.V., priority 2014, published 2017)
# Like-named read-outs stand apart in the source and are kept apart here. Numbered stars: 1 amine (or outer) side, 2 acyl side, 3 side chain; on linkers, the order of the positions; unused ones are H or OH. Bridge positions count the residues as written; N and C are the ends. Square brackets hold non-standard residues; d marks the D form. Peptide text beside a SMILES is read from it. ξ: configuration not given here. ξAbu(3ξ-yl) = CC(C(N[*:1])C(=O)[*:2])[*:3]; pGlu = O=C1CC[C@@H](C(=O)O)N1; X1 = CC=C(N[*:1])C(=O)[*:2]; ξC = NC(CS)C(=O)O
# Tests used:
# hAPJ [1] = target: T1, hAPJ (Homo sapiens, UniProt P35414); assay: hAPJ receptor internalization assay (APJ-GFP translocation, HEK293); assay type: cell-based; parameters: expressed in transfected cells; host or cells: HEK293, adenoviral transduction (Ad-GFP-hAPJ); conditions: 500 nM max, read-out: Relative EC50 (nM), hAPJ internalisation
# T1 sequence (P35414 1-380): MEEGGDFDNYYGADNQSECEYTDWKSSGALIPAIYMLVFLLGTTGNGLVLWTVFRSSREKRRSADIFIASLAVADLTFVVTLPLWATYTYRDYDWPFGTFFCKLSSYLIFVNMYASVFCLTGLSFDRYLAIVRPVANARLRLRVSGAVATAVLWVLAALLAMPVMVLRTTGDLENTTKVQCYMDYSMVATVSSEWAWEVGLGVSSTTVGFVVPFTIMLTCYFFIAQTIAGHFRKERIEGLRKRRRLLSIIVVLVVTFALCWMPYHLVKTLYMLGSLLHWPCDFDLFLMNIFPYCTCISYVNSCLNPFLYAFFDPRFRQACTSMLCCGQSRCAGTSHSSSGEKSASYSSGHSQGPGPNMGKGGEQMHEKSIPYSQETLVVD
# Experimental: HEK293 cells are seeded 24 hours prior to experiment at 50% confluence in 2×F75 flasks. The next morning, cells are trypsinized, vortexed for 60 seconds and passed through a 40 micron mesh filter. Cells are resuspended at a density of 300,000 cells/ml in OptiMEM+2% FBS, and Ad-GFP-hAPJ virus is added at an MOI of 1 PFU/cell. Cells are vortexed and dispensed into 96 well clear bottom, black dishes at a concentration of 10,000 cells/well. Cells are maintained at room temperature for 30 minutes to allow cell attachment to the dish prior to Incubation overnight at 37° C. in a 5% CO2 incubator. Next morning, apelin analogs are added in a concentration response curve (500 nM max). APJ-GFP translocation is observed and documented on Olympus FV con-focal microscope.
# hAPJ [2] = target: T1, hAPJ; assay: APJ competition binding assay ([125I]-Apelin 13, SPA, HEK293 membranes); parameters: expressed in transfected cells; host or cells: HEK293, adenoviral transduction (Ad-GFP-hAPJ); conditions: competition with 0.06 nM [Glp65,Nle75,Tyr77][125I]-Apelin 13; read-out: Relative IC50, hAPJ BINDING
# Experimental: [Glp^65, Nle^75, Tyr^77][^125I]-Apelin 13 binding experiments are carried out in SPA 96-well format. Membranes used in this assay are prepared from HEK293 cells stably expressing either recombinant hAPJ or rAPJ. The incubation is initiated by the addition of a mixture of WGA PVT SPA beads (0.5 mg/well) and 0.08 μg of membranes to an assay buffer (25 mM HEPES, 10 mM MgCl2, 1 mM CaCl2, 0.1% BSA, pH7.4) containing 0.06 nM [Glp^65, Nle^75, Tyr^77][^125I]-Apelin 13 and increasing concentrations of the tested compound (10 point concentration response curves). Non-specific binding is determined in the presence of 100 nM apelin 17. Samples are incubated during eight hours at room temperature (22° C.). Then, 96-well plates are read in a Microbeta Trilux.
# hAPJ [3] = target: T1, hAPJ; assay: beta arrestin assay (DiscoverX); assay type: cell-based; conditions: for Ratio β-arrestin/cAMP: ratio of β-arrestin EC50 to cAMP EC50; for EC50: read-out: β-arrestin EC50
# Experimental: (§1) (Me)lan apelin variants were tested with cAMP and beta arrestin assays from the company DiscoverX.
# [4] = target: T2, HEK293 cells expressing recombinant APJ receptors (Homo sapiens, UniProt P35414); assay: Forskolin-stimulated cAMP assay (HTRF); assay type: cell-based; conditions: 10 μM forskolin, 0.5 mM IBMX, 40 min; read-out: Relative EC50 (nM), cAMP
# T2 construct: expressed in transfected cells; host or cells: HEK293
# T2 sequence (P35414 1-380): T1 sequence (P35414 1-380)
# Experimental: Cyclic AMP level in HEK293 cells expressing recombinant APJ receptors is assayed by an HTRF competitive immunoassay. Cells at a density of 4000 cells/well are resuspended in assay buffer (HBSS containing Ca^2+ and Mg^2+ supplemented with 0.1% BSA and 5 mM HEPES) and added to the assay plate. Incubation for 40 min at room temperature is started with the addition of increasing concentrations of the compounds containing 10 μM forskolin and 0.5 mM IBMX. Reaction is stopped by addition of lysis buffer including d2-labeled cAMP, followed by addition of cryptate-labeled anti-cAMP monoclonal antibody, according to the manufacturer instructions. Time-resolved fluorescence at 620 and 665 nm is measured in an Envision instrument after 2 hour incubation at room temperature in the dark. cAMP content in the samples is determined by interpolation in a cAMP standard curve.
# [5] = Stability of apelin analogs in rat plasma; assay type: in vitro ADME
# Experimental: Stability of apelin analogs in rat plasma. […] Samples were quenched by acidifying to final concentration of 5% TFA. Samples were analyzed on HPLC. Peak heights were plotted as relative to the initial peak heights.
# hAPJ [6] = target: T3, hAPJ (Homo sapiens, UniProt P35414); assay: hAPJ β-arrestin recruitment assay (PathHunter, CHO-K1); assay type: cell-based; conditions: for EC50: 90 min incubation at 37° C., read-out: Relative EC50, Arrestin recruitment
# T3 construct: host or cells: CHO-K1
# T3 sequence (P32121 whole entry partner, one chain of several): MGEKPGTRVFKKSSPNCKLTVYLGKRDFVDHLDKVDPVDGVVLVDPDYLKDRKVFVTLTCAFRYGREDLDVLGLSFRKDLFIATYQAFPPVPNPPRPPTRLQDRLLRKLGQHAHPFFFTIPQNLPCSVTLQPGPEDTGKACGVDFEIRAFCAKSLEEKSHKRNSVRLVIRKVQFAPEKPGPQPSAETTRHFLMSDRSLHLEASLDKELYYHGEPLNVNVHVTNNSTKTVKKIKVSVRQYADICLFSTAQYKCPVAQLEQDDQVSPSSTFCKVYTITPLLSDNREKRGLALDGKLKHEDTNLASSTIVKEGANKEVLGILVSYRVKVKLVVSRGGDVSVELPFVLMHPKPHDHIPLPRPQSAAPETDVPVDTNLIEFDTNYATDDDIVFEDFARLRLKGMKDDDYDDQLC
# Experimental: Stimulation of hAPJ interaction with 6-arrestin is studied using the PathHunter™ system from DiscoveRx. CHO-K1 cell line was engineered to co-express the ProLink/Enzyme donor (PK)-tagged APJ and the enzyme activator (EA)-tagged 6-arrestin fusion proteins. Upon GPCR activation, enzyme fragment complementation occurs, to produce an active β-Gal enzyme. These cells are seeded at a density of 15000 cells/well. […] Following 90 min incubation at 37° C. with the compounds, cells are lysed and incubated with PathHunter reagent for 1 hour at room temperature. Samples are then read with an ultrasensitive luminescence protocol using an Envision instrument (Perkin Elmer).
# hAPJ [7] = target: T1, hAPJ; assay: cAMP assay (DiscoverX); assay type: cell-based
# Experimental: as §1
# [8] = tested on: human immunodeficiency virus; conditions: cited from earlier work
SMILES,EC50 (hAPJ [1]) [nM],IC50 (hAPJ [2]) [nM],Ratio β-arrestin/cAMP (hAPJ [3]),EC50 (hAPJ [3]) [nM],EC50 [4] [nM],"half-life at 0.1 mg/ml ([5]; rat, plasma, pH 7.4) [h]",activity in arrestin recruitment assay (hAPJ [6]),EC50 (hAPJ [6]) [nM],EC50 (hAPJ [7]) [nM],"stability in rat plasma ([5]; rat, plasma)",blocking of HIV entry into cells [8],"half-life at 0.1 mg/ml ([5]; 10% rat plasma, pH 7.4, 37° C., 0.1 mg/ml, read-out: T50 stability in rat plasma (converted)) [h]"
"CSCC[C@H](NC(=O)[C@@H]1CCCN1C(=O)C1CSC(C)C(NC(=O)[C@H](CC(C)C)NC(=O)[C@H](CCCNC(=N)N)NC(=O)[C@@H]2CCCN2C(=O)[C@H](CCCNC(=N)N)NC(=O)[C@@H]2CCC(=O)N2)C(=O)N[C@@H](Cc2c[nH]cn2)C(=O)N[C@@H](CCCCN)C(=O)N1)C(=O)N1CCC[C@H]1C(=O)N[C@@H](Cc1ccccc1)C(=O)O (some centres unmarked) [pEApeM5, pERPRLmelanHKmelanPMPF] ([pGlu]RPRL[ξAbu(3ξ-yl)]HK[ξC]PMPF-OH; thioether 6-9; C-terminus assumed)",1.25,115,9,67,29.3,9,significant activity,14.1,7,–,–,–
"CC=C(NC(=O)[C@H](CCSC)NC(=O)[C@@H]1CCCN1C(=O)C1CSC(C)C(NC(=O)[C@H](CC(C)C)NC(=O)[C@H](CCCNC(=N)N)NC(=O)[C@@H]2CCCN2C(=O)[C@H](CCCNC(=N)N)NC(=O)[C@@H]2CCC(=O)N2)C(=O)N[C@@H](Cc2c[nH]cn2)C(=O)N[C@@H](CCCCN)C(=O)N1)C(=O)N[C@@H](Cc1ccccc1)C(=O)O (some centres unmarked) [pEApeM5T, pERPRLmeLanHKmeLanPMDhbF] ([pGlu]RPRL[ξAbu(3ξ-yl)]HK[ξC]PM[X1]F-OH; thioether 6-9; C-terminus assumed)",–,–,0.16,32,–,24,–,–,190,enhanced stability,–,–
"CSCC[C@H](NC(=O)[C@@H]1CCCN1C(=O)CNC(=O)C1CSC(C)C(NC(=O)[C@H](CC(C)C)NC(=O)[C@H](CCCNC(=N)N)NC(=O)[C@@H]2CCCN2C(=O)[C@H](CCCNC(=N)N)NC(=O)[C@@H]2CCC(=O)N2)C(=O)N[C@@H](Cc2c[nH]cn2)C(=O)N[C@@H](CCCCN)C(=O)N1)C(=O)N1CCC[C@H]1C(=O)O (some centres unmarked) [pEApeM6deltaF, pERPRLmeLanHKmeLanGPMP] ([pGlu]RPRL[ξAbu(3ξ-yl)]HK[ξC]GPMP-OH; thioether 6-9; C-terminus assumed)",> 1000,–,3,385,–,–,–,–,125,–,–,–
"CSCC[C@H](NC(=O)C1CSC(C)C(NC(=O)[C@H](CC(C)C)NC(=O)[C@H](CCCNC(=N)N)NC(=O)[C@@H]2CCCN2C(=O)[C@H](CCCNC(=N)N)NC(=O)[C@@H]2CCC(=O)N2)C(=O)N[C@@H](Cc2c[nH]cn2)C(=O)N[C@@H](CCCCN)C(=O)NCC(=O)N1)C(=O)N1CCC[C@H]1C(=O)N[C@@H](Cc1ccccc1)C(=O)O (some centres unmarked) [pEApeM8, pERPRLmeLanHKGmeLanMPF] ([pGlu]RPRL[ξAbu(3ξ-yl)]HKG[ξC]MPF-OH; thioether 6-10; C-terminus assumed)",> 1000,> 1000,>8,> 1000,> 300,24,–,> 300,125,–,–,–
CSCC[C@@H]1NC(=O)[C@@H]2CCCN2C(=O)CNC(=O)C(NC(=O)[C@H](Cc2c[nH]cn2)NC(=O)[C@H](C)NC(=O)[C@H](CC(C)C)NC(=O)[C@H](CCCNC(=N)N)NC(=O)[C@@H]2CCCN2C(=O)[C@H](CCCNC(=N)N)NC(=O)[C@@H]2CCC(=O)N2)CSCC(C(=O)N[C@@H](Cc2ccccc2)C(=O)O)NC1=O (some centres unmarked) [pEApeT8cS],–,–,122,245,–,8,–,–,2,–,–,–
CSCC[C@H](NC(=O)[C@@H]1CCCN1C(=O)CNC(=O)[C@H](CCCCN)NC(=O)[C@H](Cc1c[nH]cn1)NC(=O)[C@H](CO)NC(=O)[C@H](CC(C)C)NC(=O)[C@H](CCCNC(=N)N)NC(=O)[C@@H]1CCCN1C(=O)[C@H](CCCNC(=N)N)NC(=O)[C@@H](N)CCC(N)=O)C(=O)N1CCC[C@H]1C(=O)N[C@@H](Cc1ccccc1)C(=O)O [reference compound],–,–,–,–,–,–,–,–,–,–,poorly blocks,1
